{
  "source": "patent US5358947A",
  "about": "“Angiotensin II receptor blocking 2,3-substituted pyrazolo[1,5-a]-1,3,5-triazin-4(3H)-ones” (American Cyanamid Company, priority 1993, dated 1994)",
  "system": "ANGIOTENSIN II (AII) VASOPRESSOR RESPONSE",
  "assay": "AII Challenge: angiotensin II (AII) vasopressor response in conscious rats",
  "assay_type": "in vivo",
  "parameters": "Response After AII / Change / Average Change: unit not given here",
  "conditions": "for Control Before AII / Change / Response After AII: individual rat; for Control Before AII: in mmHg (unit assumed); for % Inhibition / Average Change: n = 2",
  "how_it_was_run": "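Conscious male Okamoto-Aoki SHR (16-20 weeks, ~330 g), aorta/vena cava cannulated, challenged with AII 0.05 and 0.1 ug/kg i.v. before and at 30-300 min after compound dosed i.v., i.p. or orally. Systolic pressure rise expressed relative to each rat's predose response (100%).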",
  "key": {"[1]": {"conditions": "3 mg/kg i.v., AII 0.05 mcg/kg, 30 min post dose"}, "[2]": {"conditions": "3 mg/kg i.v., AII 0.05 mcg/kg, 30 min post dose, listed as Ex. 17"}, "[3]": {"conditions": "3 mg/kg i.v., AII 0.1 mcg/kg, 30 min post dose"}, "[4]": {"conditions": "3 mg/kg i.v., AII 0.1 mcg/kg, 30 min post dose, listed as Ex. 17"}, "[5]": {"conditions": "10 mg/kg i.v., AII 0.05 mcg/kg, 60 min post dose, listed as Ex. 17"}, "[6]": {"conditions": "10 mg/kg i.v., AII 0.05 mcg/kg, 90 min post dose, listed as Ex. 17"}, "[7]": {"conditions": "10 mg/kg i.v., AII 0.05 mcg/kg, 120 min post dose, listed as Ex. 17"}, "[8]": {"conditions": "10 mg/kg i.v., AII 0.05 mcg/kg, 180 min post dose, listed as Ex. 17"}, "[9]": {"conditions": "10 mg/kg i.v., AII 0.05 mcg/kg, 240 min post dose, listed as Ex. 17"}, "[10]": {"conditions": "10 mg/kg i.v., AII 0.05 mcg/kg, 300 min post dose, listed as Ex. 17"}, "[11]": {"conditions": "10 mg/kg i.v., AII 0.1 mcg/kg, 60 min post dose, listed as Ex. 17"}, "[12]": {"conditions": "10 mg/kg i.v., AII 0.1 mcg/kg, 90 min post dose, listed as Ex. 17"}, "[13]": {"conditions": "10 mg/kg i.v., AII 0.1 mcg/kg, 120 min post dose, listed as Ex. 17"}, "[14]": {"conditions": "10 mg/kg i.v., AII 0.1 mcg/kg, 180 min post dose, listed as Ex. 17"}, "[15]": {"conditions": "10 mg/kg i.v., AII 0.1 mcg/kg, 240 min post dose, listed as Ex. 17"}, "[16]": {"conditions": "10 mg/kg i.v., AII 0.1 mcg/kg, 300 min post dose, listed as Ex. 17"}},
  "note": "Values joined by “and” are separate entries in the source; they are usually repeats but may differ in a detail not shown here. Identical values can stand only once.",
  "data": [
    {"smiles": "CCCCc1nc2ccnn2c(=O)n1Cc1ccc(-c2ccccc2-c2nn[nH]n2)cc1", "note": "[Example 17, 2-Butyl-3-[[2'-(1H-tetrazol-5-yl)[1,1'-biphenyl]-4-yl]methyl]pyrazolo[1,5-a]-1,3,5-triazin-4(3H) -one]", "values": [
      {"measurement": "Control Before AII", "setting": "[1]", "value": 252},
      {"measurement": "Change", "setting": "[2]", "value": "33 and 30"},
      {"measurement": "Response After AII", "setting": "[2]", "value": "285 and 265"},
      {"measurement": "Control Before AII", "setting": "[2]", "value": 235},
      {"measurement": "% Inhibition", "setting": "[1]", "value": 34, "unit": "%"},
      {"measurement": "Average Change", "setting": "[1]", "value": 31.5},
      {"measurement": "Control Before AII", "setting": "[3]", "value": 255},
      {"measurement": "Change", "setting": "[4]", "value": "25 and 35"},
      {"measurement": "Response After AII", "setting": "[4]", "value": "280 and 260"},
      {"measurement": "Control Before AII", "setting": "[4]", "value": 225},
      {"measurement": "% Inhibition", "setting": "[3]", "value": 37, "unit": "%"},
      {"measurement": "Average Change", "setting": "[3]", "value": 30},
      {"measurement": "Change", "setting": "[5]", "value": "5 and 10"},
      {"measurement": "Response After AII", "setting": "[5]", "value": "255 and 245"},
      {"measurement": "Control Before AII", "setting": "[5]", "value": "250 and 235"},
      {"measurement": "% Inhibition", "setting": "[5]", "value": 84, "unit": "%"},
      {"measurement": "Average Change", "setting": "[5]", "value": 7.5},
      {"measurement": "Change", "setting": "[6]", "value": 25},
      {"measurement": "Response After AII", "setting": "[6]", "value": "275 and 255"},
      {"measurement": "Control Before AII", "setting": "[6]", "value": "250 and 230"},
      {"measurement": "% Inhibition", "setting": "[6]", "value": 47, "unit": "%"},
      {"measurement": "Average Change", "setting": "[6]", "value": 25},
      {"measurement": "Change", "setting": "[7]", "value": "25 and 30"},
      {"measurement": "Response After AII", "setting": "[7]", "value": "270 and 255"},
      {"measurement": "Control Before AII", "setting": "[7]", "value": "245 and 225"},
      {"measurement": "% Inhibition", "setting": "[7]", "value": 42, "unit": "%"},
      {"measurement": "Average Change", "setting": "[7]", "value": 27.5},
      {"measurement": "Change", "setting": "[8]", "value": "20 and 30"},
      {"measurement": "Response After AII", "setting": "[8]", "value": "260 and 240"},
      {"measurement": "Control Before AII", "setting": "[8]", "value": "240 and 210"},
      {"measurement": "% Inhibition", "setting": "[8]", "value": 47, "unit": "%"},
      {"measurement": "Average Change", "setting": "[8]", "value": 25},
      {"measurement": "Change", "setting": "[9]", "value": "25 and 15"},
      {"measurement": "Response After AII", "setting": "[9]", "value": "270 and 250"},
      {"measurement": "Control Before AII", "setting": "[9]", "value": "245 and 235"},
      {"measurement": "% Inhibition", "setting": "[9]", "value": 58, "unit": "%"},
      {"measurement": "Average Change", "setting": "[9]", "value": 20},
      {"measurement": "Change", "setting": "[10]", "value": "40 and 30"},
      {"measurement": "Response After AII", "setting": "[10]", "value": "290 and 245"},
      {"measurement": "Control Before AII", "setting": "[10]", "value": "250 and 215"},
      {"measurement": "% Inhibition", "setting": "[10]", "value": 26, "unit": "%"},
      {"measurement": "Average Change", "setting": "[10]", "value": 35},
      {"measurement": "Control Before AII", "setting": "10 mg/kg i.v., AII 0.1 mcg/kg, 60 min post dose", "value": 255},
      {"measurement": "Change", "setting": "[11]", "value": "5 and 10"},
      {"measurement": "Response After AII", "setting": "[11]", "value": "260 and 235"},
      {"measurement": "Control Before AII", "setting": "[11]", "value": 225},
      {"measurement": "% Inhibition", "setting": "[11]", "value": 84, "unit": "%"},
      {"measurement": "Average Change", "setting": "[11]", "value": 7.5},
      {"measurement": "Change", "setting": "[12]", "value": "15 and 35"},
      {"measurement": "Response After AII", "setting": "[12]", "value": "265 and 260"},
      {"measurement": "Control Before AII", "setting": "[12]", "value": "250 and 225"},
      {"measurement": "% Inhibition", "setting": "[12]", "value": 47, "unit": "%"},
      {"measurement": "Average Change", "setting": "[12]", "value": 25},
      {"measurement": "Change", "setting": "[13]", "value": "25 and 30"},
      {"measurement": "Response After AII", "setting": "[13]", "value": "275 and 260"},
      {"measurement": "Control Before AII", "setting": "[13]", "value": "250 and 230"},
      {"measurement": "% Inhibition", "setting": "[13]", "value": 42, "unit": "%"},
      {"measurement": "Average Change", "setting": "[13]", "value": 27.5},
      {"measurement": "Control Before AII", "setting": "10 mg/kg i.v., AII 0.1 mcg/kg, 180 min post dose", "value": 240},
      {"measurement": "Change", "setting": "[14]", "value": "30 and 40"},
      {"measurement": "Response After AII", "setting": "[14]", "value": "270 and 265"},
      {"measurement": "Control Before AII", "setting": "[14]", "value": 225},
      {"measurement": "% Inhibition", "setting": "[14]", "value": 26, "unit": "%"},
      {"measurement": "Average Change", "setting": "[14]", "value": 35},
      {"measurement": "Change", "setting": "[15]", "value": "35 and 30"},
      {"measurement": "Response After AII", "setting": "[15]", "value": "290 and 270"},
      {"measurement": "Control Before AII", "setting": "[15]", "value": "255 and 240"},
      {"measurement": "% Inhibition", "setting": "[15]", "value": 32, "unit": "%"},
      {"measurement": "Average Change", "setting": "[15]", "value": 32.5},
      {"measurement": "Change", "setting": "[16]", "value": "35 and 25"},
      {"measurement": "Response After AII", "setting": "[16]", "value": "285 and 260"},
      {"measurement": "Control Before AII", "setting": "[16]", "value": "250 and 235"},
      {"measurement": "% Inhibition", "setting": "[16]", "value": 37, "unit": "%"},
      {"measurement": "Average Change", "setting": "[16]", "value": 30}
    ]}
  ]
}
